Data on three compounds can be found in US11065220B2, “Anti-pathogenic therapeutic compositions” (Wintermute Biomedical, Inc., priority 2017, dated 2021).

Experiment [1] deals with MRSA. Kind of experiment: In-vitro resistance study, repeated sub-inhibitory exposures of MRSA. Conditions: sub-inhibitory concentrations. It counts as cell-based, Staphylococcus aureus. How it is done: A number of standard in-vitro resistance studies were conducted to predict the onset and mechanism of resistance for an anti-pathogenic compound such as WT13-13. The standard test comprises exposing bacteria to sub-inhibitory concentrations of an antibiotic over a number of exposures and monitoring the bacterial growth. As the bacteria develop resistance to the drug, the growth rate will rise. Tests were performed by treating MRSA with sub-inhibitory concentrations of both WT13-13 and mupirocin (separately) in order to study the behavior of WT13-13 and compare with that of mupirocin. The horizontal dotted lines represent the ideal, non-resistant behavior. That is, if an antibiotic were effective and the bacteria not developing resistance to it, its growth curve would be flat and follow the dotted line. However, all antibiotics to date experience bacterial resistance and trend upwards of the dotted line, towards the MRSA-only control line (if an antibiotic reaches the control line, it is completely ineffective and the bacteria is resistant to the antibiotic). […] The shading 1201 highlights this behavior. […] The shading 1203 highlights this behavior. […] Such “anti-resistance” has not been reported in an antibiotic before.

For experiment [2], the system named is MRSA. Kind of experiment: Iodonitrotetrazolium chloride assay of MRSA growth, various anthraquinones with L-Arg and UCA. It counts as cell-based, Staphylococcus aureus. Conditions: FIG. 20. How it is done: Although the WT13-13 example compound described herein uses cassic acid (rhein) as the anthraquinones, other anthraquinones may be used. This is illustrated in FIG. 20, for example. In FIG. 20, antibiotic effects of other anthraquinones were tested against MRSA. As shown, identical ratios of L-Arg and UCA were combined with various anthraquinones, including cassic acid (Rhein), aloe-emodin (AloeE), and chrysophanol (Chyrs.). Formulations were tested for MRSA growth using an iodonitrotetrazolium chloride assay. Each compound was MRSA was assayed in media control and subtracted from the values taken from the wells containing MRSA to control for colorimetric alterations. Each MRSA well contained 100,000 CFUs in 100 microliters.
As shown in FIG. 20 discussed above, in addition to cassic acid, other anthraquinones were tested for activity using an iodonitrotetrazolium chloride assay. Each anthraquinone was assayed for activity against one or more pathogen. In FIG. 20 activity was tested against MRSA growth.

`C/C(=C\C(=O)OCCCCCCCCC(=O)O)C[C@@H]1OC[C@H](C[C@@H]2O[C@H]2[C@@H](C)[C@H](C)O)[C@@H](O)[C@H]1O` [mupirocin]: the “development of resistance over multiple exposures (growth trend)” value in the experiment with MRSA [1] was “trends upwards towards the control line”. For `O=C(O)C(=O)O` [oxcalic acid], in the experiment on MRSA [2], the “inhibition of MRSA growth” value is given as “Inhibition of growth”. Consider `O=C1c2cccc(O)c2C(=O)c2c(O)cccc21` [dantron], for which, in the experiment with MRSA [2], the “inhibition of MRSA growth” value is recorded as “Inhibition of growth”.
